In US9890117B2, “Benzamide compounds and related methods of use” (Northwestern University, priority 2012, dated 2018):

Columns and labels:
WT st14a cells = experiment: Toxicity monitoring in WT st14a cells; type: cell-based; details: up to 18 h treatment
[1] = Microsomal stability screen, mouse; details: 1 μM
[2] = Microsomal stability screen, human; details: 1 μM
N2a cells = experiment: Toxicity monitoring in N2a cells; type: cell-based
Protocol: (§1) To assess SIRT2 inhibition activity in cells, an increase in α-tubulin K40 acetylation (α-tubulin is a substrate for SIRT2) in neuronal N2a and in wild type and HD ST141 cell lines was measured. In this bioactivity test, extracts from compound-treated cells were resolved on SDS-PAGE and subjected to Western analysis using primary antibodies specific to K40 acetylated α-tubulin. Trichostatin A (TSA), a potent HDAC inhibitor, was used as a positive control. To normalize the levels of acetylated α-tubulin we used total α-tubulin and GADPH proteins, detected by Western reactive antibodies specific to total α-tubulin and GADPH. […] FIGS. 2A-B show the bioactivity of 61 and 64 in N2a cells at three tested concentrations (10, 25, and 50 μM). Toxicity of the compounds was monitored in both cell lines, and most of them were non-toxic up to 50 μM in a 6 h treatment.

[3] = tested on: α-tubulin K40 acetylation (SIRT2 substrate) in N2a cells; experiment: α-tubulin K40 acetylation (Western) in neuronal N2a cells; type: cell-based; details: N2a cells, 10, 25, 50 μM, 6 h
Protocol: FIGS. 2A-B. Cell-based assay for evaluating the bioactivity of SIRT2 inhibitors. A) Extracts from neuronal N2a cells treated with 61 and 64 for 6 h were resolved on SDS-PAGE and analyzed by Western analysis using antibodies specific to acetylated α-tubulin, and normalized to GADPH and total α-tubulin (not shown) levels.
as §1

SIRT1 = target: T1, SIRT1 (Homo sapiens, UniProt Q96EB6); experiment: Fluor-de-Lys biochemical sirtuin deacetylation assay, SIRT1 counter-screen; details: 10 μM counter-screen
T1 sequence (Q96EB6 1-747): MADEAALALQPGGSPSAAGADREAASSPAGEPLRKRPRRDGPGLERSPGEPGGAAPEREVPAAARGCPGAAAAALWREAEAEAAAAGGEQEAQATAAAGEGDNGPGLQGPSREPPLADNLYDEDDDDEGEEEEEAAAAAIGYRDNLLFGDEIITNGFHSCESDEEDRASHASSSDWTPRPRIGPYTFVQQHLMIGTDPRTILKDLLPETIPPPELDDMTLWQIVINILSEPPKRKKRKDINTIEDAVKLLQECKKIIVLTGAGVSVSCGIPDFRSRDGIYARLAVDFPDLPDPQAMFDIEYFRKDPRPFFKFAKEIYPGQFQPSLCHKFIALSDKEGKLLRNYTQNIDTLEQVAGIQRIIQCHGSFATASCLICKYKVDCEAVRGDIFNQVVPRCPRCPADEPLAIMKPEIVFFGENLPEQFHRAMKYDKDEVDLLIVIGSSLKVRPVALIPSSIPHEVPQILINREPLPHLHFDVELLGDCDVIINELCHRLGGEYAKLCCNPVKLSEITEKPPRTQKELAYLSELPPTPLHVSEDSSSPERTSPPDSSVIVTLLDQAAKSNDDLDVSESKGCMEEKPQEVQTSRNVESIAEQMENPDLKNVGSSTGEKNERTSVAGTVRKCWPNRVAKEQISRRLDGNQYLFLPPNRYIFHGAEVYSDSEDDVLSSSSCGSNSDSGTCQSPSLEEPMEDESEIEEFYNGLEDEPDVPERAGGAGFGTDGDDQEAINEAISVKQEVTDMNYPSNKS
Protocol: To evaluate the potency and selectivity of the synthesized compounds robust, sensitive, and quantitative, biochemical sirtuin deacetylation assays were employed. (SIRT2 then SIRT1 and SIRT3 for selectivity). Sirtuin activity was assessed using the Fluor-de-Lys assay with recombinant active enzymes SIRT1, SIRT2, and the catalytically active fragment of SIRT3, as described in the literature. […] AK-1 was included as the reference compound with each assay. […] Those compounds also were subjected to SIRT1 and SIRT3 assays to determine sirtuin selectivity.
As discussed above, Tables 1-10 are presented and followed by details relating to the synthesis and characterization of compounds prepared. Inhibition assays and related testing of such compounds are conducted according to well-known literature protocols including those found in Silverman, et al., Biorg. Med. Chem. Lett. 22 (2012) 2789-2793 and the references cited therein, such references and tests incorporated herein by reference.

[4] = tested on: α-tubulin K40 acetylation (SIRT2 substrate) in wild type and HD ST141 cell lines; experiment: α-tubulin K40 acetylation (Western) in wild type and HD ST141 cell lines; type: cell-based
Protocol: as §1

SIRT2 = target: T2, SIRT2 (Homo sapiens, UniProt Q8IXJ6); experiment: Fluor-de-Lys biochemical sirtuin deacetylation assay, SIRT2; details: dose-response, five doses, side-by-side with AK-1
T2 construct: recombinant active enzymes SIRT1, SIRT2, and the catalytically active fragment of SIRT3
T2 sequence (Q8IXJ6 1-389): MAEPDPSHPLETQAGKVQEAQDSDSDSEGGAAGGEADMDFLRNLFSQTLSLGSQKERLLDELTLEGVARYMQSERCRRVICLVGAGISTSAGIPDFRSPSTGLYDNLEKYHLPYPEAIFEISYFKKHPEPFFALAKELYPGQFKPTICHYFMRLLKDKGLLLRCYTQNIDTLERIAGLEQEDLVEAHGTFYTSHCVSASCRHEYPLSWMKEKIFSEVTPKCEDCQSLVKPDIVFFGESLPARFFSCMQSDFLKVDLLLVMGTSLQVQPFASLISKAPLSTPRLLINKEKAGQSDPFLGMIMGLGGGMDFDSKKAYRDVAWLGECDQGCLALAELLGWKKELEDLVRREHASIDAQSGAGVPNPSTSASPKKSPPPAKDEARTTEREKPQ

Mean remaining parent NADPH-free (%) [1] [%]	Mean remaining parent with NADPH (%) [1] [%]	Mean remaining parent NADPH-free (%) [2] [%]	Mean remaining parent with NADPH (%) [2] [%]	SIRT1 inhibition (SIRT1)	SIRT2 inhibition potency compared with AK-1 (SIRT2)	Structure (SMILES)	toxicity (WT st14a cells)	toxicity (N2a cells; 25 μM)	toxicity (N2a cells; 50 μM)	increase in α-tubulin K40 acetylation [3]	increase in α-tubulin K40 acetylation [4]
90	2	106	2	–	–	COc1ccc(N(C)S(=O)(=O)c2cccc(C(=O)Nc3ccc(C#N)cc3)c2)cc1 [Compound 90, N-(4-Cyanophenyl)-3-(N-(4-methoxyphenyl)-N-methylsulfamoyl)benzamide]	no toxicity was observed	partially toxic	toxic	–	–
–	–	–	–	minimal SIRT1 inhibition	significantly more potent	CN(c1ccc(S(C)(=O)=O)cc1)S(=O)(=O)c1cccc(C(=O)Nc2ccc(C#N)cc2)c1 [Compound 115, N-(4-Cyanophenyl)-3-(N-methyl-N-(4-(methylsulfonyl)phenyl)sulfamoyl)benzamide]	–	–	–	did not show any significant increase	did not show any significant increase
